Measured values from patent US20220323406A1, “METHODS AND COMPOSITIONS FOR DIFFERENTIATING STEM CELLS” (Massachusetts Institute of Technology, priority 2019, published 2022).

Legend:
[1] = test system: ENR+CD organoids (ISC to Paneth cell differentiation); test: Primary screen: basal (non-stimulated) lysozyme secretion LYZ.NS, 2.5-D 384-well ENR+CD organoid differentiation; assay type: cell-based, mouse
From the text: (§1) High-throughput screening.

[2] = test system: ENR+CD organoids (ISC to Paneth cell differentiation); test: Primary screen: CCh-stimulated lysozyme secretion LYZ.S, 2.5-D 384-well ENR+CD organoid differentiation; assay type: cell-based, mouse; conditions: primary screen
From the text: as §1

ENR+CD organoids = test: Primary screen: ATP (CellTiter-Glo 3D, CTG) cell number/viability, 2.5-D 384-well ENR+CD organoids;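 note: compounds given at plating and again on day 3 over a 6-day differentiation from ENR+CV stem-cell-enriched precursors, ATP measured on day 6, plate median as control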
[3] = primary screen, dose 0.08 uM, standard z score
[4] = primary screen, dose 0.40 uM, standard z score
[5] = primary screen, dose 2.00 uM, standard z score
[6] = primary screen, dose 10.00 uM, standard z score
[7] = primary screen; dose 0.08 uM; FC vs plate median
[8] = primary screen; dose 0.40 uM; FC vs plate median
[9] = primary screen; dose 2.00 uM; FC vs plate median
[10] = primary screen; dose 10.00 uM; FC vs plate median
[11] = dose 0.08 uM, FC vs plate median
[12] = dose 0.40 uM, FC vs plate median
[13] = dose 2.00 uM, FC vs plate median
[14] = dose 10.00 uM, FC vs plate median
[15] = primary screen, dose 0.08 uM, FC relative to plate median
[16] = primary screen, dose 0.40 uM, FC relative to plate median
[17] = primary screen, dose 2.00 uM, FC relative to plate median
[18] = primary screen, dose 10.00 uM, FC relative to plate median
[19] = primary screen, standard z score, dose 0.08 uM
[20] = primary screen, standard z score, dose 0.40 uM
[21] = primary screen, standard z score, dose 2.00 uM
[22] = primary screen, standard z score, dose 10.00 uM

Compound: C=CCn1c(=O)c2cnc(Nc3ccc(N4CCN(C)CC4)cc3)nc2n1-c1cccc(C(C)(C)O)n1 [MK-1775]
- Z.LYZ.NS [1, 3]: 0.334
- Z.LYZ.NS [1, 4]: −1.331
- Z.LYZ.NS [1, 5]: −1.869
- Z.LYZ.NS [1, 6]: −1.574
- Dose.FC.LYZ.NS [1, 7]: 0.038 log2 fold change
- Dose.FC.LYZ.NS [1, 8]: −0.153 log2 fold change
- Dose.FC.LYZ.NS [1, 9]: −0.215 log2 fold change
- Dose.FC.LYZ.NS [1, 10]: −0.181 log2 fold change
- Dose.FC.LYZ.S [2, 11]: 0.066 log2 fold change
- Dose.FC.LYZ.S [2, 12]: −0.217 log2 fold change
- Dose.FC.LYZ.S [2, 13]: −0.208 log2 fold change
- Dose.FC.LYZ.S [2, 14]: −0.254 log2 fold change
- Dose.FC.CTG (ENR+CD organoids; [7]): 0.165 log2 fold change
- Dose.FC.CTG (ENR+CD organoids; [8]): −0.450 log2 fold change
- Dose.FC.CTG (ENR+CD organoids; [9]): −0.804 log2 fold change
- Dose.FC.CTG (ENR+CD organoids; [10]): −1.026 log2 fold change

Compound: Cn1cnc2c(F)c(Nc3ccc(Br)cc3Cl)c(C(=O)NOCCO)cc21 [Selumetinib (AZD6244)]
- Dose.FC.LYZ.NS [1, 15]: 0.021 log2 fold change
- Z.LYZ.NS [1, 3]: 0.181
- Dose.FC.LYZ.NS [1, 16]: −0.022 log2 fold change
- Z.LYZ.NS [1, 4]: −0.188
- Dose.FC.LYZ.NS [1, 17]: −0.097 log2 fold change
- Z.LYZ.NS [1, 5]: −0.847
- Dose.FC.LYZ.NS [1, 18]: −0.140 log2 fold change
- Z.LYZ.NS [1, 6]: −1.220
- Dose.FC.LYZ.S ([2]; dose 0.08 uM, FC relative to plate median): 0.004 log2 fold change
- Dose.FC.LYZ.S ([2]; dose 0.40 uM, FC relative to plate median): −0.047 log2 fold change
- Dose.FC.LYZ.S ([2]; dose 2.00 uM, FC relative to plate median): −0.175 log2 fold change
- Dose.FC.LYZ.S ([2]; dose 10.00 uM, FC relative to plate median): −0.211 log2 fold change
- Dose.FC.CTG (ENR+CD organoids; [15]): 0.164 log2 fold change
- Z.CTG (ENR+CD organoids; [3]): 0.393
- Dose.FC.CTG (ENR+CD organoids; [16]): −0.165 log2 fold change
- Z.CTG (ENR+CD organoids; [4]): −0.395
- Dose.FC.CTG (ENR+CD organoids; [17]): −0.257 log2 fold change
- Z.CTG (ENR+CD organoids; [5]): −0.613
- Dose.FC.CTG (ENR+CD organoids; [18]): −0.852 log2 fold change
- Z.CTG (ENR+CD organoids; [6]): −2.035

Compound: COc1cc(Nc2ncc(F)c(Nc3ccc4c(n3)N(COP(=O)(O)O)C(=O)C(C)(C)O4)n2)cc(OC)c1OC [Fostamatinib (R788)]
- Dose.FC.LYZ.NS ([1]; primary screen, dose 0.08 uM): 0.119 log2 fold change
- Dose.FC.LYZ.NS ([1]; primary screen, dose 0.40 uM): −0.025 log2 fold change
- Dose.FC.LYZ.NS ([1]; primary screen, dose 2.00 uM): −0.099 log2 fold change
- Dose.FC.LYZ.NS ([1]; primary screen, dose 10.00 uM): −0.234 log2 fold change
- Z.LYZ.NS [1, 19]: 1.033
- Z.LYZ.NS [1, 20]: −0.217
- Z.LYZ.NS [1, 21]: −0.860
- Z.LYZ.NS [1, 22]: −2.036
- Dose.FC.LYZ.S ([2]; dose 0.08 uM): 0.235 log2 fold change
- Dose.FC.LYZ.S ([2]; dose 0.40 uM): 0.156 log2 fold change
- Dose.FC.LYZ.S ([2]; dose 2.00 uM): −0.015 log2 fold change
- Dose.FC.LYZ.S ([2]; dose 10.00 uM): −0.350 log2 fold change
- Dose.FC.CTG (ENR+CD organoids; primary screen, dose 0.08 uM): 0.232 log2 fold change
- Dose.FC.CTG (ENR+CD organoids; primary screen, dose 0.40 uM): −0.052 log2 fold change
- Dose.FC.CTG (ENR+CD organoids; primary screen, dose 2.00 uM): −0.231 log2 fold change
- Dose.FC.CTG (ENR+CD organoids; primary screen, dose 10.00 uM): −0.881 log2 fold change
- Z.CTG (ENR+CD organoids; [19]): 0.554
- Z.CTG (ENR+CD organoids; [20]): −0.123
- Z.CTG (ENR+CD organoids; [21]): −0.552
- Z.CTG (ENR+CD organoids; [22]): −2.105

Compound: O=[N+]([O-])C=Cc1ccc2c(c1)OCO2
- Z.LYZ.NS [1, 3]: 0.499
- Z.LYZ.NS [1, 4]: −0.088
- Z.LYZ.NS [1, 5]: 0.347
- Z.LYZ.NS [1, 6]: −1.307
- Dose.FC.LYZ.NS [1, 7]: 0.057 log2 fold change
- Dose.FC.LYZ.NS [1, 8]: −0.010 log2 fold change
- Dose.FC.LYZ.NS [1, 9]: 0.040 log2 fold change
- Dose.FC.LYZ.NS [1, 10]: −0.150 log2 fold change
- Dose.FC.LYZ.S [2, 11]: 0.076 log2 fold change
- Dose.FC.LYZ.S [2, 12]: 0.100 log2 fold change
- Dose.FC.LYZ.S [2, 13]: 0.019 log2 fold change
- Dose.FC.LYZ.S [2, 14]: −0.179 log2 fold change
- Z.CTG (ENR+CD organoids; [3]): −0.037
- Z.CTG (ENR+CD organoids; [4]): 0.146
- Z.CTG (ENR+CD organoids; [5]): 0.148
- Z.CTG (ENR+CD organoids; [6]): −0.469
- Dose.FC.CTG (ENR+CD organoids; [7]): −0.016 log2 fold change
- Dose.FC.CTG (ENR+CD organoids; [8]): 0.061 log2 fold change
- Dose.FC.CTG (ENR+CD organoids; [9]): 0.062 log2 fold change
- Dose.FC.CTG (ENR+CD organoids; [10]): −0.197 log2 fold change

Compound: NC(=O)C1CCCc2c1[nH]c1ccc(Cl)cc21 (stereo not drawn) [EX 527 (Selisistat)]
- Dose.FC.LYZ.NS ([1]; primary screen, dose 0.08 uM): 0.100 log2 fold change
- Dose.FC.LYZ.NS ([1]; primary screen, dose 0.40 uM): 0.059 log2 fold change
- Dose.FC.LYZ.NS ([1]; primary screen, dose 2.00 uM): 0.030 log2 fold change
- Dose.FC.LYZ.NS ([1]; primary screen, dose 10.00 uM): 0.057 log2 fold change
- Z.LYZ.NS [1, 19]: 0.871
- Z.LYZ.NS [1, 20]: 0.512
- Z.LYZ.NS [1, 21]: 0.261
- Z.LYZ.NS [1, 22]: 0.494
- Dose.FC.LYZ.S ([2]; dose 0.08 uM): 0.062 log2 fold change
- Dose.FC.LYZ.S ([2]; dose 0.40 uM): 0.047 log2 fold change
- Dose.FC.LYZ.S ([2]; dose 2.00 uM): −0.051 log2 fold change
- Dose.FC.LYZ.S ([2]; dose 10.00 uM): −0.011 log2 fold change
- Dose.FC.CTG (ENR+CD organoids; primary screen, dose 0.08 uM): 0.240 log2 fold change
- Dose.FC.CTG (ENR+CD organoids; primary screen, dose 0.40 uM): 0.174 log2 fold change
- Dose.FC.CTG (ENR+CD organoids; primary screen, dose 2.00 uM): 0.341 log2 fold change
- Dose.FC.CTG (ENR+CD organoids; primary screen, dose 10.00 uM): 0.320 log2 fold change
- Z.CTG (ENR+CD organoids; [19]): 0.574
- Z.CTG (ENR+CD organoids; [20]): 0.415
- Z.CTG (ENR+CD organoids; [21]): 0.814
- Z.CTG (ENR+CD organoids; [22]): 0.766
